ChEMBL document CHEMBL3286142, “Synthesis and antihyperglycemic evaluation of new 2-hydrazolyl-4-thiazolidinone-5-carboxylic acids having pyrazolyl pharmacophores” (2014)

Tested on: Rattus norvegicus
Assay: Antihyperglycemic activity in sucrose loaded albino Sprague-Dawley rat model assessed as improvement of glucose tolerance by measuring reduction in glucose AUC at 100 mg/kg, po administered 30 mins prior to sucrose load measured for 2 hrs by oral sucrose tolerance test
Type: functional
Parameters: scale not given: the % may be the effect or the level left

SMILES | Activity [%]
Cc1ccc(-c2nn(-c3ccccc3)cc2/C=N\N=C2\NC(=O)C(CC(=O)O)S2)cc1 (configuration not stated) | 6.09
COc1ccc(-c2nn(-c3ccccc3)cc2/C=N\N=C2\NC(=O)C(CC(=O)O)S2)cc1 (configuration not stated) | 6.97
O=C(O)CC1S/C(=N\N=C/c2cn(-c3ccccc3)nc2-c2ccc(F)cc2)NC1=O (configuration not stated) | 7.64
O=C(O)CC1S/C(=N\N=C/c2cn(-c3ccccc3)nc2-c2ccc(Br)cc2)NC1=O (configuration not stated) | 5.69
O=C(O)CC1S/C(=N\N=C/c2cn(-c3ccccc3)nc2-c2ccc([N+](=O)[O-])cc2)NC1=O (configuration not stated) | 7.57
O=C(O)CC1S/C(=N\N=C/c2cn(-c3ccccc3)nc2-c2ccc(O)cc2)NC1=O (configuration not stated) | 7.97
CN(C)C(=N)NC(=N)N [METFORMIN] | 14.1
